Measured values taken from patent US20090214420A1, “Method of Diagnosis and Treatment and Agents Useful for Same” (MEDVET SCIENCE PTY. LTD., priority 2005, published 2009).
“Also recorded” adds a separate entry of the source.

Columns and labels:
Assay type in all cases: cell-based, human
Jurkat cells [1] = assay: Flow cytometry (PI, La, hTERT, TRF2 staining) of Jurkat cells after cytotoxic treatment; conditions: FIG. 4B; for hTERT staining of Jurkat cells: 48 h treatment, only in PI high cells
Experimental: (§1) FIG. 4 is a graphical representation of the cytotoxic treatment of malignant human cells results in increased expression of TRF2 and La in apoptotic cells 24 h after treatment and in increased expression of hTERT in apoptotic cells 48 h after treatment. A. Jurkat cells after 24 h treatment with cytotoxic agents. […] B. Jurkat cells after 48 h treatment with cytotoxic agents. […] C. Raji cells after 24 h treatment with cytotoxic agents. […] D. Jurkat cells after 24 h treatment with cytotoxic agents. […] E. Jurkat cells after 48 h treatment with cytotoxic agents. Staining for La (3B9-F1TC) and TRF2 in apoptotic cells was more evident 48 h after treatment with all cytotoxic agents. F. Raji cells after 48 h treatment with cytotoxic agents. […] G. HeLa cells after 48 h treatment with cytotoxic agents. […] In each case, the staining is indicated above each column of panels and the cytotoxic employed is indicated to the left of each row of panels. Also indicated is a PI only control and negative controls for hTERT staining (purified rat IgG or anti-rat secondary antibody alone) and for TRF2 staining (purified mouse IgG or anti-mouse secondary antibody alone).
(§2) The Jurkat and Raji cell lines were cultured in RPMI supplemented with 10% FCS, 50 U/mL penicillin and 50 μg/mL streptomycin sulphate and the U2OS and HeLa cell lines were cultured in DMEM supplemented with 10% FCS, 50 U/mL penicillin and 50 μg/mL streptomycin sulphate (JRH Laboratories). The cell lines were treated for 24 or 48-hour periods with various cytotoxic agents as follows: Jurkat and Raji cells with etoposide, 20 μg/mL; HeLa and U2OS cells with cisplatin, 1 μg/mL, and vincristine, 0.1 μg/mL; Jurkat, HeLa and U2OS cells with 0.5 μM STS, and Raji cells with 2 μM STS. The treated cells were stained with propidium iodide (PI) (Sigma) 0.5 μg/mL and FITC-conjugated Sal5 or 3B9 mAb, or mouse anti-TRF2 mAb (clone 36, Becton-Dickinson) and then secondary antibody, anti mouse FITC (Chemicon, Temecula, Calif., USA), or rat anti-hTERT mAb (clone 36-10, Alexis Biochemicals) and then secondary antibody, anti rat FITC (Caltag, Burlingame, Calif., USA). Purified mouse IgG or rat IgG (Institute of Medical and Veterinary Science, Adelaide, Australia) were used as negative controls for TRF2 and hTERT staining, respectively. To further improve the method for detection of hTERT for later use in whole blood staining, which appeared to have been hindered by the presence of autofluorescence presumably emanating from red blood cells, anti-hTERT monoclonal antibody clone 36-10 was conjugated directly to AlexaFluor350 (Molecular Probes), which is excited at 355 nm and emits maximally between 420-460 nm. Anti-hTERT-Alexa350 was combined with the EpCAM monoclonal antibody (BD Biosciences), which is conjugated to PE that excites at 488 nm and emits 560-590 nm, and the nuclear impermeant DNA-binding dye TOPRO-3 (Molecular Probes), which excites at 560 nm and emits maximally in the far red region (>650 nm).
The human T cell leukemia cell line, Jurkat, and the human B lymphoma cell line, Raji, were treated for 24 or 48 hour periods with the following cytotoxic agents: staurosporine, which is a pan-kinase inhibitor, etoposide, which is a topoisomerase II inhibitor, vincristine, which is a microtubule depolymerising agent and cisplatin, which is a DNA cross linking agent. Cells were then stained with propidium iodide (PI) and the anti-La monoclonal antibody (mAb), 3B9, or its isotype control, Sal5, or with mAbs specific for hTERT or TRF2. As negative controls for staining with the hTERT- or TRF2-specific mAbs, rat IgG and anti-rat secondary antibody or mouse IgG and anti-mouse secondary antibody, respectively, were used.

Raji cells = assay: Flow cytometry (PI, La, hTERT, TRF2 staining) of Raji cells after cytotoxic treatment; conditions: for TRF2 staining of Raji cells: 48 hours, FIG. 4F
Experimental: as §1
as §2, with “Anti-hTERT-Alexa350 was combined with the EpCAM monoclonal antibody (BD Biosciences), which is conjugated to PE that excites at 488 nm and emits 560-590 nm, and the nuclear impermeant DNA-binding dye TOPRO-3 (Molecular Probes), which excites at 560 nm and emits maximally in the far red region (>650 nm).” left out

HeLa cells = assay: Flow cytometry (PI, La, hTERT, TRF2 staining) of HeLa cells after cytotoxic treatment; conditions: FIG. 4G; for apoptosis and La staining in HeLa cells: 48 h treatment
Experimental: as §1, §2
Similarly, TRF2 staining of PI^+ dead Jurkat cells was evident as soon as 24 hours after cytotoxic treatment (FIG. 4D) and 48 hours afterwards (F1G. 4E). […] In contrast, it took 48 hours after treatment with cisplatin, etoposide and vincristine for hTERT staining of PI^+ dead Jurkat cells to be evident (arrows, FIG. 4B). hTERT staining of PI^+ dead Raji cells was evident 48 hours after treatment with vincristine (arrow, FIG. 4C). As additional controls, the telomerase-expressing human cervical carcinoma cell line, HeLa, and the telomerase-negative human osteosarcoma cell line, U2OS (M Frolkis et al. Cancer Gene Therapy 10, 239-249, 2003), were also treated with staurosporine, vincristine and etoposide and analysed by flow cytometry 48 hours after treatment.

H69 cells = assay: BerEP4-FITC / PI staining of etoposide-treated H69 cells; conditions: 48 hours
Experimental: FIG. 8 is a graphical representation of the staining of H69 cells using the anti-epithelial marker monoclonal antibody BerEP4-FITC. H69 cells (1×10^6 cells/mL) were cultured in RPMI-1640 containing 5% FCS in the absence or presence of the specified concentrations of etoposide (0-400 μg/mL). After 48 hours of incubation, cells were collected and incubated at room temperature for 15 minutes with (A) 5 μg/mL BerEP4-FITC or (B) 5 μg/mL mouse IgG2aκ-FITC isotype. Cells were washed and pellets were resuspended in 0.5 μg/mL solution of PI in PBS then analysed by flow cytometry.

U2OS cells [2] = assay: Flow cytometry (PI, La, hTERT, TRF2 staining) of U2OS cells after cytotoxic treatment; conditions: FIG. 4H
Experimental: as §1, §2
Similarly, TRF2 staining of PI^+ dead Jurkat cells was evident as soon as 24 hours after cytotoxic treatment (FIG. 4D) and 48 hours afterwards (F1G. 4E). […] As additional controls, the telomerase-expressing human cervical carcinoma cell line, HeLa, and the telomerase-negative human osteosarcoma cell line, U2OS (M Frolkis et al. Cancer Gene Therapy 10, 239-249, 2003), were also treated with staurosporine, vincristine and etoposide and analysed by flow cytometry 48 hours after treatment.

Jurkat cells [3] = assay: Viability analysis using trypan blue staining after induction of apoptosis, Jurkat cells; conditions: 0.5 μM staurosporine
Experimental: (§3) Jurkat cells (ATCC #TIB-152) were maintained in RPMI 1640 supplemented with 5% fetal calf serum (FCS). U2OS cells (ATCC #HTB-96) were maintained in DMEM supplemented with 5% FCS and passaged every 48-72 hours after detachment with Trypsin EDTA. Jurkat cells express telomerase and thus have the integral RNA component, hTR, whereas U2OS cells lack telomerase and hTR. Apoptosis was induced by the addition of 0.5 μM staurosporine to the culture media for 24, 48 or 72 hours.
(§4) The RNA for hTR was not detected in the hTR-negative U2OS cells but was detected in the hTR-positive Jurkat cells 24, 48 and 72 hours after the induction of apoptosis.

U2OS cells [4] = assay: Viability analysis using trypan blue staining after induction of apoptosis, U2OS cells; conditions: 0.5 μM staurosporine
Experimental: as §3, §4

Jurkat cells [5] = assay: hTERT / 7-AAD staining of Jurkat cells after staurosporine-induced apoptosis; conditions: 24 hours after induction of apoptosis, 1 μM staurosporine, FIG. 5
Experimental: (§5) FIG. 5 is a graphical representation of the culturing of PMBC with conconavalin A (conA) 10 μg/mL for 72 h. Viable cells were obtained by density gradient centrifugation and then apoptosis was induced using 1 μM staurosporine for 24 h. Jurkat cells were also treated with 1 μM staurosporine for 24 h. Dot plots depict staining for 7-AAD and hTERT. The negative control is staining with the secondary antibody alone.
(§6) Peripheral blood mononuclear cells (PBMC) were prepared from a buffy coat of a discarded unit of whole blood that had been obtained from the South Australian Red Cross Blood Bank. Initially, PBMC had been separated by density gradient centrifugation over Lymphoprep (Axis-Shield, Dundee, UK) and frozen in aliquots using a controlled rate freezer. […]
(§7) After treatment, all cells were harvested, washed in PBS and stained with 7-amino actinomycin D (7-AAD) (2 μg/mL) and anti-La 3B9 mAb or its isotype control mAb, Sal5, and then with the secondary anti-mouse antibody conjugated to R-phycoerythrin (Zymed, San Francisco, Calif., USA), or with rat anti-hTERT mAb (Alexis Biochemicals, San Diego, Calif., USA) and then with the secondary anti-rat antibody conjugated to FITC (Chemicon). Cells were analysed using a FACScan (Becton Dickinson, Franklin Lakes, N.J., USA) and the results analysed with WinMDI v2.8 software.

PBMC = assay: hTERT / 7-AAD staining of PBMC after staurosporine-induced apoptosis; conditions: 24 hours after induction of apoptosis, 1 μM staurosporine, FIG. 5
Experimental: as §5, §6, §7

Row | SMILES | hTERT staining of Jurkat cells (Jurkat cells [1]) | time after treatment for hTERT staining of PI+ dead Jurkat cells to be evident (Jurkat cells [1]) [h] | TRF2 staining of Raji cells (Raji cells) | hTERT staining of PI+ dead HeLa cells (HeLa cells; 48 hours after treatment) | apoptosis and La staining in HeLa cells (HeLa cells) | hTERT staining of PI+ dead U2OS cells (U2OS cells [2]; 48 hours after treatment) | other results
1 | N.N.[Cl][Pt][Cl] [cisplatin] | increased staining for hTERT | 48 | slightly increased staining; also recorded: increased TRF2 staining |  |  |  | 
2 | COc1cc([C@@H]2c3cc4c(cc3[C@@H](O[C@@H]3O[C@@H]5CO[C@@H](C)O[C@H]5[C@H](O)[C@H]3O)[C@H]3COC(=O)[C@H]23)OCO4)cc(OC)c1O [etoposide] | increased staining for hTERT | 48 |  | Evident staining; also recorded: staining for hTERT | induced apoptosis | not | TRF2 staining of PI+ dead HeLa cells (HeLa cells; 48 hours after treatment): Evident staining; also recorded: little staining for TRF2; etoposide concentration giving maximal proportion of dead (BerEP4+ PI+) H69 carcinoma cells (H69 cells; FIG. 8A): 200 to 400 µg/mL; extent of cell death of H69 cells (H69 cells; etoposide 0-400 μg/mL, FIG. 8): dose-dependent
3 | CN[C@@H]1C[C@H]2O[C@@](C)([C@@H]1OC)n1c3ccccc3c3c4c(c5c6ccccc6n2c5c31)C(=O)NC4 [staurosporine] |  |  |  | Evident staining; also recorded: staining for hTERT | induced apoptosis | not and no corresponding staining | Jurkat cells dead (trypan blue) (Jurkat cells [3]; 24 hours): 40%; Jurkat cells dead (trypan blue) (Jurkat cells [3]; 48 hours): 85%; Jurkat cells dead (trypan blue) (Jurkat cells [3]; 72 hours): 100%; U2OS cells dead (trypan blue) (U2OS cells [4]; 24 hours): 36%; U2OS cells dead (trypan blue) (U2OS cells [4]; 48 hours): 95%; U2OS cells dead (trypan blue) (U2OS cells [4]; 72 hours): 100%; telomerase expression in Jurkat cells (Jurkat cells [5]): little if any; telomerase expression in dead PBMC (PBMC): little if any; TRF2 staining of PI+ dead U2OS cells (U2OS cells [2]; 48 hours after treatment): no corresponding staining; apoptosis and La staining in U2OS cells (U2OS cells [2]; 48 h treatment): induced apoptosis
4 | CC[C@]1(O)C[C@H]2CN(CCc3c([nH]c4ccccc34)[C@@](C(=O)OC)(c3cc4c(cc3OC)N(C=O)[C@H]3[C@@](O)(C(=O)OC)[C@H](OC(C)=O)[C@]5(CC)C=CCN6CC[C@]43[C@@H]65)C2)C1 [vincristine] | increased staining for hTERT | 48 | slightly increased staining; also recorded: increased TRF2 staining | Evident staining; also recorded: staining for hTERT | induced apoptosis | not | hTERT staining of Raji cells (Raji cells; 24 h treatment (legend FIG. 4C)): marginally increased staining; hTERT staining of PI+ dead Raji cells (Raji cells; 48 hours after treatment (text, FIG. 4C)): evident
